Assay: In vitro Li delivery through pig skin in a flow-through Li-AgCl cell (protected Li metal foil donor electrode)
Assay type: in vitro ADME
Settings: ICP-MS
Description: The glass receptor compartment was similar to one described by Phipps et al. (1988) Solid-state Ionics 28-30: 1778-1783, for ionophoretic drug delivery experiments. The receptor compartment was filled with RPMI-1640 Medium (Sigma Aldrich). The antibiotic gentamicin sulphate was added to the receptor compartment fluid to inhibit bacterial growth.
The prepared skin was stored in RPMI-1640 medium overnight before the start of the experiment. The skin was placed on the receptor chamber and kept in place and stretched out with an O-ring around the neck of the chamber. The visceral surface of the skin was in contact with the receptor fluid.
A square 1 cm×1 cm silver chloride cathode with a capacity of approximately 40 mAh was introduced into the receptor chamber through a port. A multi-channel peristaltic pump was used to create a flow of the RPMI-1640 medium through receptor compartments of several cells. […]
The donor-acceptor chamber assembly was kept in place using a clamp. […] Li content in the fluid samples taken from receptor compartment was analyzed by ICP-MS.
Over the duration of the experiment (27 hrs at a current density of 0.1 mA/cm^2 and 24 hrs at a current density of 0.2 mA/cm^2), receptor fluid samples were taken and analyzed.
The rate of Li delivery into the receptor compartment was calculated as a product of Li concentration and the flow rate of the receptor fluid.

[Li+] [Li, lithium]
initial Li content of receptor solution (before current passing): ≤ 6 µg/L | Li content in receptor fluid samples (constant current 0.1 mA/cm^2 (27 hrs) and 0.2 mA/cm^2 (24 hrs), 37° C, RPMI-1640 receptor fluid, flow rate 2.1 mL/hr, FIG. 9): gradually increased over time and was significantly larger for the rate of 0.2 mA/cm^2 than for 0.1 mA/cm^2

From US20090069740A1, “PROTECTED DONOR ELECTRODES FOR ELECTRO-TRANSPORT DRUG DELIVERY” (POLYPLUS BATTERY COMPANY, priority 2007, published 2009)
